Columns and labels:
DNA repair protein genes = experiment: DNA chip mRNA expression in yeast, DNA repair protein genes (Table 3); type: cell-based, Saccharomyces cerevisiae S288C; conditions: incubated two hours, concentrations as in the 1st table
In short: (§1)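 Values are treated/untreated fluorescence ratios from a whole-genome yeast DNA chip hybridized over 12 hours at 65° C with Cy3- or Cy5-labelled cDNA from poly(A) mRNA. Log-phase S288C yeast in YPD at 25° C had received a single toxic chemical for two hours, dosed to slow growth without killing.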

[1] = test system: Detoxification protein genes; experiment: DNA chip mRNA expression in yeast, detoxification protein genes (Table 8); type: cell-based, Saccharomyces cerevisiae S288C
In short: as §1

## Na2As [(1)]
DNA repair protein genes; yeast gene YAL015C
  The level of expressed mRNA in the presence of chemical substance/The level of expressed mRNA in the absence of chemical substance: 1.2
DNA repair protein genes; yeast gene YAR007C
  The level of expressed mRNA in the presence of chemical substance/The level of expressed mRNA in the absence of chemical substance: 0.7
DNA repair protein genes; yeast gene YBL019W
  The level of expressed mRNA in the presence of chemical substance/The level of expressed mRNA in the absence of chemical substance: 0.9
DNA repair protein genes; yeast gene YBR073W
  The level of expressed mRNA in the presence of chemical substance/The level of expressed mRNA in the absence of chemical substance: 0.7
DNA repair protein genes; yeast gene YBR272C
  The level of expressed mRNA in the presence of chemical substance/The level of expressed mRNA in the absence of chemical substance: 0.8
DNA repair protein genes; yeast gene YCR014C
  The level of expressed mRNA in the presence of chemical substance/The level of expressed mRNA in the absence of chemical substance: 0.8
DNA repair protein genes; yeast gene YDL017W
  The level of expressed mRNA in the presence of chemical substance/The level of expressed mRNA in the absence of chemical substance: 0.8
DNA repair protein genes; yeast gene YDL059C
  The level of expressed mRNA in the presence of chemical substance/The level of expressed mRNA in the absence of chemical substance: 2.6
DNA repair protein genes; yeast gene YDL200C
  The level of expressed mRNA in the presence of chemical substance/The level of expressed mRNA in the absence of chemical substance: 1.4
DNA repair protein genes; yeast gene YDR054C
  The level of expressed mRNA in the presence of chemical substance/The level of expressed mRNA in the absence of chemical substance: 1.3
DNA repair protein genes; yeast gene YDR369C
  The level of expressed mRNA in the presence of chemical substance/The level of expressed mRNA in the absence of chemical substance: 1.1
DNA repair protein genes; yeast gene YEL019C
  The level of expressed mRNA in the presence of chemical substance/The level of expressed mRNA in the absence of chemical substance: 1.1
DNA repair protein genes; yeast gene YEL037C
  The level of expressed mRNA in the presence of chemical substance/The level of expressed mRNA in the absence of chemical substance: 0.9
DNA repair protein genes; yeast gene YER162C
  The level of expressed mRNA in the presence of chemical substance/The level of expressed mRNA in the absence of chemical substance: 1.0
DNA repair protein genes; yeast gene YFL014W
  The level of expressed mRNA in the presence of chemical substance/The level of expressed mRNA in the absence of chemical substance: 3.4
DNA repair protein genes; yeast gene YGL058W
  The level of expressed mRNA in the presence of chemical substance/The level of expressed mRNA in the absence of chemical substance: 1.1
DNA repair protein genes; yeast gene YGL091C
  The level of expressed mRNA in the presence of chemical substance/The level of expressed mRNA in the absence of chemical substance: 2.0
DNA repair protein genes; yeast gene YGL127C
  The level of expressed mRNA in the presence of chemical substance/The level of expressed mRNA in the absence of chemical substance: 1.0
DNA repair protein genes; yeast gene YGL163C
  The level of expressed mRNA in the presence of chemical substance/The level of expressed mRNA in the absence of chemical substance: 0.9
DNA repair protein genes; yeast gene YGL249W
  The level of expressed mRNA in the presence of chemical substance/The level of expressed mRNA in the absence of chemical substance: 1.4
DNA repair protein genes; yeast gene YGR180C
  The level of expressed mRNA in the presence of chemical substance/The level of expressed mRNA in the absence of chemical substance: 3.1
DNA repair protein genes; yeast gene YGR231C
  The level of expressed mRNA in the presence of chemical substance/The level of expressed mRNA in the absence of chemical substance: 1.0
DNA repair protein genes; yeast gene YGR258C
  The level of expressed mRNA in the presence of chemical substance/The level of expressed mRNA in the absence of chemical substance: 0.7
DNA repair protein genes; yeast gene YHR164C
  The level of expressed mRNA in the presence of chemical substance/The level of expressed mRNA in the absence of chemical substance: 0.9
DNA repair protein genes; yeast gene YIL036W
  The level of expressed mRNA in the presence of chemical substance/The level of expressed mRNA in the absence of chemical substance: 0.9
DNA repair protein genes; yeast gene YIL072W
  The level of expressed mRNA in the presence of chemical substance/The level of expressed mRNA in the absence of chemical substance: 0.8
DNA repair protein genes; yeast gene YIL143C
  The level of expressed mRNA in the presence of chemical substance/The level of expressed mRNA in the absence of chemical substance: 0.9
DNA repair protein genes; yeast gene YIL153W
  The level of expressed mRNA in the presence of chemical substance/The level of expressed mRNA in the absence of chemical substance: 0.8
DNA repair protein genes; yeast gene YIR002C
  The level of expressed mRNA in the presence of chemical substance/The level of expressed mRNA in the absence of chemical substance: 0.8
DNA repair protein genes; yeast gene YJL026W
  The level of expressed mRNA in the presence of chemical substance/The level of expressed mRNA in the absence of chemical substance: 2.5
DNA repair protein genes; yeast gene YJR046W
  The level of expressed mRNA in the presence of chemical substance/The level of expressed mRNA in the absence of chemical substance: 1.0
DNA repair protein genes; yeast gene YJR052W
  The level of expressed mRNA in the presence of chemical substance/The level of expressed mRNA in the absence of chemical substance: 1.1
DNA repair protein genes; yeast gene YKL145W
  The level of expressed mRNA in the presence of chemical substance/The level of expressed mRNA in the absence of chemical substance: 0.8
DNA repair protein genes; yeast gene YLR103C
  The level of expressed mRNA in the presence of chemical substance/The level of expressed mRNA in the absence of chemical substance: 0.8
DNA repair protein genes; yeast gene YLR233C
  The level of expressed mRNA in the presence of chemical substance/The level of expressed mRNA in the absence of chemical substance: 1.1
DNA repair protein genes; yeast gene YLR288C
  The level of expressed mRNA in the presence of chemical substance/The level of expressed mRNA in the absence of chemical substance: 1.2
DNA repair protein genes; yeast gene YML032C
  The level of expressed mRNA in the presence of chemical substance/The level of expressed mRNA in the absence of chemical substance: 0.8
DNA repair protein genes; yeast gene YML058W
  The level of expressed mRNA in the presence of chemical substance/The level of expressed mRNA in the absence of chemical substance: 1.9
DNA repair protein genes; yeast gene YMR035W
  The level of expressed mRNA in the presence of chemical substance/The level of expressed mRNA in the absence of chemical substance: 1.2
DNA repair protein genes; yeast gene YMR072W
  The level of expressed mRNA in the presence of chemical substance/The level of expressed mRNA in the absence of chemical substance: 1.1
DNA repair protein genes; yeast gene YMR096W
  The level of expressed mRNA in the presence of chemical substance/The level of expressed mRNA in the absence of chemical substance: 1.7
DNA repair protein genes; yeast gene YMR284W
  The level of expressed mRNA in the presence of chemical substance/The level of expressed mRNA in the absence of chemical substance: 1.1
DNA repair protein genes; yeast gene YNL213C
  The level of expressed mRNA in the presence of chemical substance/The level of expressed mRNA in the absence of chemical substance: 1.7
DNA repair protein genes; yeast gene YNL250W
  The level of expressed mRNA in the presence of chemical substance/The level of expressed mRNA in the absence of chemical substance: 0.9
DNA repair protein genes; yeast gene YNL261W
  The level of expressed mRNA in the presence of chemical substance/The level of expressed mRNA in the absence of chemical substance: 1.0
DNA repair protein genes; yeast gene YNL312W
  The level of expressed mRNA in the presence of chemical substance/The level of expressed mRNA in the absence of chemical substance: 0.9
DNA repair protein genes; yeast gene YOL043C
  The level of expressed mRNA in the presence of chemical substance/The level of expressed mRNA in the absence of chemical substance: 1.1
DNA repair protein genes; yeast gene YOR005C
  The level of expressed mRNA in the presence of chemical substance/The level of expressed mRNA in the absence of chemical substance: 1.2
DNA repair protein genes; yeast gene YOR386W
  The level of expressed mRNA in the presence of chemical substance/The level of expressed mRNA in the absence of chemical substance: 1.0
DNA repair protein genes; yeast gene YPL022W
  The level of expressed mRNA in the presence of chemical substance/The level of expressed mRNA in the absence of chemical substance: 0.7
DNA repair protein genes; yeast gene YPL164C
  The level of expressed mRNA in the presence of chemical substance/The level of expressed mRNA in the absence of chemical substance: 1.1
DNA repair protein genes; yeast gene YPL194W
  The level of expressed mRNA in the presence of chemical substance/The level of expressed mRNA in the absence of chemical substance: 0.9
DNA repair protein genes; yeast gene YPR025C
  The level of expressed mRNA in the presence of chemical substance/The level of expressed mRNA in the absence of chemical substance: 1.1
[1]; yeast gene YBL064C
  The level of expressed mRNA in the presence of chemical substance/The level of expressed mRNA in the absence of chemical substance: 2.6
[1]; yeast gene YBR008C
  The level of expressed mRNA in the presence of chemical substance/The level of expressed mRNA in the absence of chemical substance: 3.0
[1]; yeast gene YBR145W
  The level of expressed mRNA in the presence of chemical substance/The level of expressed mRNA in the absence of chemical substance: 1.5
